The results in this text go back to patent US20040116299A1, “Phthalamide derivates, insecticides for agricultural and horticultural use and method for application thereof” (priority 2001, published 2004).

As a reminder, the mortality is the percentage killed.

Each structure is given as a SMILES string.

Format in all cases: in vivo
Data set [1] deals with Diamond Back Moth (Plutella xylostella). Briefly: Test Example 1: insecticidal effect on diamond back moth, immersion of Chinese cabbage seedling bearing eggs. The conditions noted are these: seedling with eggs immersed about 30 seconds, counted six days after immersion, 25° C.; for mortality at 5 ppm / mortality at 50 ppm: Plutella xylostella, 144 h, read-out: Test Example 1 insecticidal effect (mortality criterion). The source says: Insecticidal Effect on Diamond Back Moth (Plutella xylostella)
Adult diamond back moths were released and allowed to oviposit on a Chinese cabbage seedling. Two days after the release, the seedling having the eggs deposited thereon was immersed for about 30 seconds in a liquid chemical prepared by diluting a preparation containing each compound listed in Table 1 or 2 as an active ingredient to adjust the prescribed concentration. After air-dryness, it was allowed to stand in a room thermostatted at 25° C. Six days after the immersion, the hatched insects were counted. The mortality was calculated according to the following equation and the insecticidal effect was judged according to the criterion shown below. The test was carried out with triplicate groups of 10 insects. [formula]
The compounds described in JP-A-2001-131141 were used as comparative compounds as follows: […]

Data set [2] concerns Common Cutworm (Spodoptera litura). Briefly: Test Example 2: insecticidal effect on common cutworm, cabbage leaf dip, second-instar larvae. To be noted: cabbage leaf immersed about 30 seconds, counted eight days after inoculation, 25° C.; for mortality at 5 ppm / mortality at 50 ppm: Spodoptera litura, foliar, 192 h, read-out: Test Example 2 insecticidal effect (mortality criterion). The source says: Insecticidal Effect on Common Cutworm (Spodoptera litura)
A piece of cabbage leaf (cultivar; Shikidori) was immersed for about 30 seconds in a liquid chemical prepared by diluting a preparation containing each compound listed in Table 1 or 2 as an active ingredient to adjust the prescribed concentration. After air-dryness, it was placed in a plastic Petri dish with a diameter of 9 cm and inoculated with second-instar larvae of common cutworm, after which the dish was closed and then allowed to stand in a room thermostatted at 25° C. Eight days after the inoculation, the dead and alive were counted. The mortality was calculated according to the following equation and the insecticidal effect was judged according to the criterion shown in Test Example 1. The test was carried out with triplicate groups of 10 insects. [formula]

In data set [3] the test system is diamondback moth (Plutella xylostella). The data set is described as follows: Test Example 3: controlling effect on diamondback moth by soil treatment for cabbage (planting-hole granules). The conditions noted are these: 20 mgAI/plant granules in planting hole; for Number of parasites/3 plants After 18 days: 18 days after trans-planting; for Number of parasites/3 plants After 25 days: 25 days after trans-planting; for Number of parasites/3 plants After 32 days: 32 days after trans-planting; for Number of parasites/3 plants After 42 days: 42 days after trans-planting. The procedure: Controlling effect on diamondback moth (Plutella xylostella) by soil treatment for cabbage At the time of trans-planting cabbage plants (cultivar: YR Seitoku), planting holes were treated with granules prepared from the compound listed in Table 1 or 2 according to Formulation Example. Diamondback moths parasitic on the cabbage plants were counted on predetermined days after the trans-planting. In Table 4, mgAI/plant denotes the dosage (mg) of the active ingredient per plant.

Consider `CCSCC(C)NC(=O)c1cccc(I)c1C(=O)Nc1ccc(Cl)cc1C` (stereo not shown) [B, N^2-(4-chloro-2-methylphenyl) -3-iodo-N^1-(2-ethylthio-1-methylethyl)phthalamide, reference compound], for which the mortality at 5 ppm in data set [1] (5 ppm) and in data set [2] was 0 to 49% each time. For the same compound, the figures for the mortality at 50 ppm in data set [1] (50 ppm) and in data set [2] (50 ppm) were 100% and 0 to 49%, respectively.

Regarding `Cc1cc(Br)ccc1NC(=O)c1cccc(I)c1C(=O)NC(C)(C)C[S+](C)[O-]` (stereo not shown) [compound 28], in data set [3], the “Number of parasites/3 plants After 18 days” value turned out to be 0 parasites/3 plants, the “Number of parasites/3 plants After 25 days” value was found to be 7 parasites/3 plants, the “Number of parasites/3 plants After 32 days” value stood at 23 parasites/3 plants and the “Number of parasites/3 plants After 42 days” value stood at 59 parasites/3 plants.

Take `CC(C)(CS(C)(=O)=O)NC(=O)c1c(I)cccc1C(=O)Nc1ccc(Cl)cc1Cl` [compound 101]: the “Test Example 1 insecticidal effect (mortality criterion)” value in data set [1] (5 ppm) and in data set [1] (50 ppm) was “A (Mortality 100%)” throughout.

Turning to `Cc1cc(Cl)ccc1NC(=O)c1cccc(I)c1C(=O)NC(C)(C)C[S+](C)[O-]` (stereo not shown) [compound 25], in data set [3], the “Number of parasites/3 plants After 18 days” value is given as 0 parasites/3 plants, the “Number of parasites/3 plants After 25 days” value was found to be 0 parasites/3 plants, the “Number of parasites/3 plants After 32 days” value is 6 parasites/3 plants and the “Number of parasites/3 plants After 42 days” value is listed as 22 parasites/3 plants.

For `CSCC(C)NC(=O)c1cccc(I)c1C(=O)Nc1ccc(Cl)cc1C` (stereo not shown) [A, N^2-(4-chloro-2-methylphenyl)-3-iodo-N^1-(1-methyl-2-methylthioethyl)phthalamide, reference compound], the mortality at 5 ppm in data set [1] (5 ppm) is 0 to 49%. Further, in data set [1] (50 ppm), the mortality at 50 ppm came to 100%. Also, in data set [2], the mortality at 5 ppm fell in the range of 0 to 49%. Also, in data set [2] (50 ppm), the mortality at 50 ppm is 0 to 49%. In data set [3], the “Number of parasites/3 plants After 18 days” value is 8 parasites/3 plants, the “Number of parasites/3 plants After 25 days” value is on record as 75 parasites/3 plants, the “Number of parasites/3 plants After 32 days” value was determined as 143 parasites/3 plants and the “Number of parasites/3 plants After 42 days” value turned out to be 146 parasites/3 plants.

Consider `CSCC(C)(C)NC(=O)c1c(I)cccc1C(=O)Nc1ccc(I)cc1C` [compound 30, N^2-(1,1-dimethyl-2-methylthioethyl)-3-iodo-N^1-(4-iodo-2-methylphenyl)phthalamide], for which the mortality at 5 ppm in data set [1] (5 ppm) stood at 100%. The mortality at 50 ppm in data set [1] (50 ppm) amounted to 100%. Also, the mortality at 5 ppm in data set [2] lay in the range of 0 to 49%. Also, in data set [2] (50 ppm), the mortality at 50 ppm is 100%. In data set [3], the “Number of parasites/3 plants After 18 days” value was 0 parasites/3 plants, the “Number of parasites/3 plants After 25 days” value worked out at 9 parasites/3 plants, the “Number of parasites/3 plants After 32 days” value came out at 19 parasites/3 plants and the “Number of parasites/3 plants After 42 days” value came out at 37 parasites/3 plants.

For the compound `CSCC(C)(C)NC(=O)c1c(I)cccc1C(=O)Nc1ccc(Cl)c(C(F)(F)F)c1Cl` [compound 142], the “Test Example 1 insecticidal effect (mortality criterion)” value in data set [1] (50 ppm) is listed as “A (Mortality 100%)”. Also, the “Test Example 2 insecticidal effect (mortality criterion)” value in data set [2] (50 ppm) is “A (Mortality 100%)”.

Consider `Cc1cc(I)ccc1NC(=O)c1cccc(I)c1C(=O)NC(C)(C)C[S+](C)[O-]` (stereo not shown) [compound 31, N^2-(1,1-dimethyl-2-methylsulfinylethyl)-3-iodo-N^1-(4-iodo-2-methylphenyl)phthalamide], for which the results for the mortality at 5 ppm in data set [1] (5 ppm) and in data set [2] were 100% and 0 to 49%, respectively. In addition, the mortality at 50 ppm in data set [1] (50 ppm) and in data set [2] (50 ppm) was 100% in each case.

Regarding `Cc1cc(I)ccc1NC(=O)c1cccc(I)c1C(=O)NC(C)(C)CS(C)(=O)=O` [compound 32, N^2-(1,1-dimethyl-2-methylsulfonylethyl)-3-iodo-N^1-(4-iodo-2-methylphenyl)phthalamide], the mortality at 5 ppm in data set [1] (5 ppm) is 100%; in data set [2] it was 0 to 49%. The mortality at 50 ppm in data set [1] (50 ppm) and in data set [2] (50 ppm) was 100% each time.
